Laboratory results: US6867320B2, “Substituted phenylalkanoic acid derivatives and use thereof” (Asahi Kasei Pharma Corporation, priority 2002, dated 2005)

Legend:
[1] = system: zymosan-stimulated footpad edema; experiment: Mouse zymosan-stimulated footpad edema reaction; type: in vivo; details: ICR female mice, oral 0.1 to 500 mg/kg, compared with positive control group
Experimental: 3. Suppressing Effect on Mouse Zymosan-stimulated Footpad Edema Reaction A suppressing effect on footpad edema caused by zymosan as an inflammatory stimulant was studied by the following method. Groups of ICR female mice (6- to 7-week old) each consisting of eight mice were used for the test. A test compound was suspended or dissolved in purified water containing 0.5% methylcellulose and orally administered to the test animals at 0.1 to 500 mg/0.2 ml/kg. To the control group, purified water containing 0.5% methylcellulose was administered in a similar manner, which was not added with a test compound. One hour after the administration of the test compound, 0.02 ml of a suspension of zymosan suspended in physiological saline (Otsuka Pharmaceutical) at 1 mg/ml was subcutaneously administered to right hind leg footpad of each mouse. One and two hours after the administration of the zymosan suspension, volume of the right hind leg footpad was measured by using an apparatus for measuring a volume of mouse hind leg footpad edema (Unicom). A difference of the volume of footpad measured above and the footpad volume before the administration of the test compound measured beforehand was regarded as a volume of the edema. For the volume of the edema at 1 hour or 2 hours after the zymosan administration, a graph was prepared by indicating time in abscissa and the edema volume in ordinate, and an edema volume AUC (area under the curve) was obtained up to 2 hours by calculation using the following equation. Edema volume AUC (1·hour)=1/2×1×A+1×(A+B)/2 • A: Edema volume 1 hour after zymosan administration • B: Edema volume 2 hour after zymosan administration A suppression ratio on edema of test compound was obtained by calculation using the following equation. Edema suppression ratio (%)=[1−B/A]×100 • A: Edema volume AUC of positive control • B: Edema volume AUC of test compound administered group (2) Measurement Results

[2] = system: PGE2 production from IL-1β-stimulated MG-63 cells; experiment: Suppressing action on PGE2 production from IL-1β-stimulated MG-63 cells; type: cell-based; details: Homo sapiens, IL-1β 1 ng/ml, 18 hours, read-out: PGE2 production suppression ratio
Method in brief: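 PGE2 in 18 h supernatants was quantified by EIA and expressed as % suppression relative to IL-1β-only and unstimulated controls. Cells were the MG-63 osteosarcoma line, plated at 2×10^4/well, given compound in 0.5% FBS EMEM, then 1 ng/ml IL-1β final.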

[3] = system: LTB4 production from IgE-stimulated RBL-2H3 cells; experiment: Suppressing action on LTB4 production from IgE-stimulated RBL-2H3 cells; type: cell-based; details: Rattus norvegicus, 10 min, IgE/DNP-BSA stimulated RBL-2H3 cells, read-out: LTB4 production suppression ratio
Source text: (§1) 2. Suppressing Action on PGD2 and LTB4 Production from IgE-Stimulated RBL-2H3 Cells
(§2) Suppressing action on PGD2 and LTB4 production caused by IgE as an allergic stimulant was investigated by the following method. Cells of RBL-2H3, which is a rat mastocytoma cell line (purchased from ATCC), were suspended in DEMEM medium (GIBCO) containing 10% fetal bovine serum (BioFluid), inoculated to each well of 48-well culture plate at a density of 2×10^4 cells/well and cultured overnight. Then, IgE antiserum directed to dinitrophenylated BSA (henceforth DNP-BSA) was further added to each well, and the cells were cultured for 30 minutes. Then, the medium was changed to DEMEM medium containing 0.5% fetal bovine serum, a test compound was added with each well, and DNP-BSA was further added at a final concentration of 100 ng/ml as a stimulant. Ten minutes after the stimulant was added, the culture supernatant was collected, and the PGD2 concentration and LTB4 concentration in the culture supernatant were measured by using EIA kit (CAYMAN). By using a well which was not added with the stimulant as a negative control and a well which was added only with the stimulant as a positive control, suppressing ratios on mediator production were calculated from the production amounts of the mediators in the well added with the test compound using the following equation. PGD2 or LTB4 production suppression ratio=[1−(C−B)/(A−B)]×100 • A: PGD2 or LTB4 production amount of positive control • B: PGD2 or LTB4 production amount of negative control • C: PGD2 or LTB4 production amount in well added with test compound
(§3) Further, as control compounds for comparison, reference compound (1), 3-(2-cyclohexylmethyloxy-1,1′-biphenyl-5-yl)propionic acid described in WO99/19291, reference compounds (2) and (3), [2-(5,6,7,8-tetrahydro-5,5,8,8-tetramethyl-2-naphthalenyl)methyloxy-1,1′-biphenyl-5-yl]carboxylic acid [reference compound (2)] and 3-[3′-carboxy-2-(5,6,7,8-tetrahydro-5,5,8,8-tetramethyl-2naphthalenyl)methyloxy-1,1′-biphenyl-6-yl]propionic acid [reference compound (3)] described in U.S. Pat. No. 5,391,817 and Japanese Patent Unexamined Publication (Kokai) No. 7-22399, respectively, were used, and activities thereof were similarly measured.

[4] = system: PGD2 production from IgE-stimulated RBL-2H3 cells; experiment: Suppressing action on PGD2 production from IgE-stimulated RBL-2H3 cells; type: cell-based; details: Rattus norvegicus, 10 min, IgE/DNP-BSA stimulated RBL-2H3 cells, read-out: PGD2 production suppression ratio
Source text: as §1, §2, §3

Row | SMILES | suppression of footpad edema caused by zymosan [1] | inhibition at 0.4 µM [2] | inhibition at 0.4 µM [3] | inhibition at 0.4 µM [4]
1 | O=C(O)CCc1ccc(OCc2cccc(Cl)c2)c(-c2ccc3[nH]ccc3c2)c1 [Compound 150, 3-[4-(3-chlorophenylmethyloxy)-3-(1H-indol-5-yl)phenyl]propionic acid] | suppressed footpad edema | ≥ 50% | ≥ 50% | ≥ 50%
2 | O=C(O)CCc1ccc(OCC2CCCC2)c(-c2ccc3c(O)cccc3c2)c1 [Compound 010, 3-[4-cyclopentylmethyloxy-3-(5-hydroxynaphthalen-2-yl)phenyl]propionic acid] | suppressed footpad edema | ≥ 50% | ≥ 50% | ≥ 50%
3 | COC(=O)CCc1ccc(OCC2CCCC2)c(-c2ccc3[nH]ccc3c2)c1 [Compound 099, methyl 3-[4-cyclopentylmethyloxy-3-(1H-indol-5-yl)phenyl]propionate] | suppressed footpad edema | ≥ 50% | ≥ 50% | ≥ 50%
4 | O=C(O)CCc1ccc(OCc2ccc(Cl)cc2)c(-c2ccc3[nH]ccc3c2)c1 [Compound 152, 3-[4-(4-chlorophenylmethyloxy)-3-(1H-indol-5-yl)phenyl]propionic acid] | suppressed footpad edema | ≥ 50% | ≥ 50% | ≥ 50%
5 | O=C(O)CCc1ccc(OCc2ccc(-c3ccccc3)cc2)c(-c2ccc3[nH]ccc3c2)c1 [Compound 179, 3-{4-[(biphenyl-4-yl)methyloxy]-3-(1H-indol-5-yl)phenyl}propionic acid] | suppressed footpad edema | ≥ 50% | ≥ 50% | ≥ 50%
6 | Cn1ccc2cc(-c3cc(CCC(=O)O)ccc3OCC3CCCC3)ccc21 [Compound 235, 3-[4-cyclopentylmethyloxy-3-(1-methyl-1H-indol-5-yl)phenyl]propionic acid] | suppressed footpad edema | ≥ 50% | ≥ 50% | ≥ 50%
7 | Cc1ccc(CCOc2ccc(CCC(=O)O)cc2-c2ccc3[nH]ccc3c2)cc1 [Compound 204, 3-{3-(1H-indol-5-yl)-4-[2-(4-methylphenyl)ethyloxy]phenyl}propionic acid] | suppressed footpad edema | ≥ 50% | ≥ 50% | ≥ 50%
8 | CCCCOc1ccc(COc2ccc(CCC(=O)OC)cc2-c2ccc3[nH]ccc3c2)cc1 [Compound 185, methyl 3-{4-[4-(butyloxy)phenylmethyloxy]-3-(1H-indol-5-yl)-phenyl}propionate] | suppressed footpad edema |  | ≥ 50% | ≥ 50%
9 | O=C(O)CCc1ccc(OCc2ccccc2F)c(-c2ccc3[nH]ccc3c2)c1 [Compound 142, 3-[4-(2-fluorophenylmethyloxy)-3-(1H-indol-5-yl)phenyl]propionic acid] | suppressed footpad edema | ≥ 50% | ≥ 50% | ≥ 50%
10 | Nc1nc2ccc(-c3cc(CCC(=O)O)ccc3OC3CCCCC3)cc2s1 [Compound 295, 3-[3-(2-aminobenzothiazol-6-yl)-4-cyclohexyloxyphenyl]propionic acid] | suppressed footpad edema | ≥ 50% | ≥ 50% | ≥ 50%
11 | O=C(O)CCc1ccc(OCC2CCCC2)c(-c2ccc3cc(O)ccc3c2)c1 [Compound 004, 3-[4-cyclopentylmethyloxy-3-(6-hydroxynaphthalen-2-yl)phenyl]propionic acid] | suppressed footpad edema | ≥ 50% | ≥ 50% | ≥ 50%
